Data taken from a melting point compilation (Tetko et al.; mined from patent text by program, amines drawn as free bases though some values may be those of a salt).

Point of comparison: `COc1ccc(C(=O)C#Cc2ccc3c(c2)c(=O)n(Cc2ccc(F)cc2)c(=O)n3C)cc1`, melting point 240 °C. Against it:
- CCOc1ccc(F)c(CCN=C(N)Nc2ccc(Br)cn2)c1Cl — lower, 169 to 172 °C
- C[C@@H]1CN2C(=O)c3ccccc3[C@@](O)(c3ccc(F)cc3)C2=N1 — lower, 229 to 232 °C
- COC(=O)c1ccc2cc(-c3ccc(C(=O)O)c(C45CC6CC(CC(C6)C4)C5)c3)ccc2c1 — not separable, 239 to 240 °C
- CC1(Cc2ccc(Cl)c(Cl)c2)OC(=O)N(Cc2cc(C(F)(F)F)cc(C(F)(F)F)c2)C1=O (stereo not drawn) — lower, 80 to 82 °C
- CCS(=O)(=O)c1ccc(-c2cc(C(F)(F)F)ccc2OCC(=O)O)cc1C(F)(F)F — lower, 174 to 175 °C
- COc1cc(Nc2c(C#N)cnc3cc(-c4ccc(C=O)cc4)sc23)cc(OC)c1OC — higher, 268 to 270 °C
- CNc1ncn(C)c1C(=O)NCc1ccccc1 — lower, 110 to 111 °C
- COC(=O)c1cc(C(=O)c2ncc3ccc(C(=O)O)cn23)ccc1[N+](=O)[O-] — higher, 290 °C
- O=C(Nc1ccccc1)c1ccc(F)c([N+](=O)[O-])c1 — lower, 155 to 157 °C
- CC(=O)NC[C@H]1CN(c2ccc3c(c2)N(C(=O)OCc2ccccc2)[C@H](C)C3)C(=O)O1 — lower, 201 to 203 °C
- CCOc1cc2c(cc1OC)C(c1ccc(C(=O)N(C(C)C)C(C)C)cc1)=N[C@@H]1CCOC[C@H]21 — lower, 116 to 120 °C
- O=C(NC(Cc1ccc(OCc2ccc(Cl)cc2)cc1)C(=O)O)c1cc2ccc(-c3ccc(Cl)cc3)cc2o1 (stereo not drawn) — lower, 195 °C
- COc1ccc(-c2cnc(N)c(Sc3ccc(Cl)cc3)n2)cc1 — lower, 154 to 155 °C
- CCOc1ncnc(OCC)c1NC(=S)NC(=O)c1ccccc1 — lower, 162 °C
- NCCCCC(OP(=O)(O)CCCCc1ccccc1)C(=O)N1CCCC1C(=O)O (stereo not drawn) — lower, 160 to 175 °C
- CO/N=C/C1=NNC(=O)N(/N=C/c2cccnc2)C1 — lower, 237 to 238 °C
- CC(C)(C)n1cc(C#N)c2cc([N+](=O)[O-])cnc21 — lower, 216 to 218 °C
- COc1cccc(C(O)CNCCN)c1 (stereo not drawn) — lower, 50 °C
- O=C(Br)c1ccc(F)c(Br)c1 — lower, 34.8 to 35.8 °C
- Cc1ccc(C2(Cl)c3ccccc3C(=O)c3ccccc32)cc1 — lower, 136 to 140 °C
- COC(=O)c1ccc(-c2nc3[nH]c4ccccc4c3c(=O)[nH]2)cc1 — higher, > 250 °C
- CN(CCOc1ccc(C=C2SC(=O)NC2=O)cc1)c1nc2ccccc2s1 — lower, 219 °C
- CC1(C)CCC(C)(C)c2cc(OCc3ccc(CO)cc3)ccc21 — lower, 108 to 109 °C
- COC(=S)CCC[C@@H](O)[C@@H](c1ccccc1)c1ccc2ccccc2c1 (relative stereo) — lower, 90 °C
- Oc1ccc(NC2Cc3ccccc3C2)cc1 — lower, 165 to 167 °C
- COC(=O)Oc1ccc(OC)cc1 — lower, 33 to 34 °C
- Cc1ccc(S(=O)(=O)OCCc2c(C)nc3cc(C)ccn3c2=O)cc1 — lower, 128 °C
- COc1ccc(-c2nc(C(F)(F)F)cn2-c2ccc(C#N)cc2)cc1 — lower, 146 to 148 °C
- CN1CCC(=O)C(=C(c2ccccc2)c2ccccc2)C1 — lower, 129 to 131 °C
- COc1ccc(Cn2ccnc2)cc1 — lower, 157 to 159 °C
- CCOC(=O)c1cnc2nn(C)cc2c1N1CCN(C)CC1 — lower, 142 to 143 °C
- O=C(N[C@H](CN1CCC(OC2c3ccccc3CCc3ccccc32)CC1)C(=O)O)OCc1ccccc1 — lower, 128 to 130 °C
- O=Cc1cn(Cc2ccc(OCc3ccccc3)cc2)cc1-c1ccccc1 — lower, 100 to 101 °C
- COc1ccc(C(=O)Nc2ccccc2)cc1NC(=O)CC(=O)OCc1ccccc1 — lower, 168 to 171 °C
- CC(=O)Nc1nc2c(Oc3cc(N4CCN(C(C)c5ccc(F)cc5)CC4)ncn3)cccc2o1 (stereo not drawn) — lower, 200 °C
- CCNc1cncc(C(=NCCO[N+](=O)[O-])NC#N)c1 — lower, 100 °C
- O=C(Nc1cccc2c1C(=O)c1c-2n[nH]c1-c1ccc(C(=O)NC2CCCCC2)s1)NN1CCOCC1 — higher, 264 to 267 °C
